Results taken from PubChem BioAssay AID720570 (Broad Institute, 2013).
Calls of active or inactive are those of the source.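 The calls were made as follows: active = cell-killing curve crosses a set limit at a concentration no more than twice the top valid dose; inconclusive = flat curve with a 30 to 70% loss, or a poor fit; inactive = signal rising instead of falling, and the rest.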

Assay: cytotoxicity in EWS/Fli1-dependent TC71 cells – cell-based, luminescence, cherry-picked samples, retest, confirmation (AID 720570)
Conditions: TC71 Ewing sarcoma viability, CellTiter-Glo ATP, 72 h; at 23.5 µM (top of the series)

| Structure (SMILES) | activity change, negative = cytotoxicity |
| --- | --- |
| N#C[C@H]1[C@H](c2ccc(C#Cc3ccccc3F)cc2)[C@@H](CO)N1C(=O)C1CCCCC1 | -17% (inactive) |

Same assay, conditions: TC71 Ewing sarcoma viability, CellTiter-Glo ATP, 72 h; at 26 µM (top of the series)

| Structure (SMILES) | activity change, negative = cytotoxicity |
| --- | --- |
| Cc1ccc(Cc2c(-c3ccco3)nc3c(C)cc(Br)cn23)cc1 | -21.5% (inactive) |
| CCOc1ccc(NC(=O)C(=O)N/N=C\c2ccc(CNS(=O)(=O)c3ccccc3)o2)cc1 | 17.4% (inactive) |
| CCc1ccc(/C=C2\SC(=S)N(CCC(=O)Nc3cc(C)on3)C2=O)cc1 | 9.95% (inactive) |
| O=C1C(=O)N(Cc2cccs2)c2ccccc21 | 17.4% (inactive) |
| CC(=O)c1ccc(N=C2C(=O)Nc3ccccc32)cc1 | -7.15% (inactive) |
| O=C(C[C@@H]1CC[C@@H]2[C@H](COC[C@@H](O)CN2S(=O)(=O)c2ccc(F)cc2)O1)NCc1ccc(Cl)c(Cl)c1 | -10.7% (inactive) |
| c1cncc(-c2ccc([C@@H]3[C@H]4CNC[C@@H]3N4CC3CCOCC3)cc2)c1 | 5.7% (inactive) |
| CCOc1ccc(-c2cc(CCCC(=O)N3CCN(c4ccc(OC)cc4)CC3)no2)cc1 | -1.53% (inactive) |
| CCc1ccc(/C=C2\SC(=S)N(CCCC(=O)Nc3cc(C)on3)C2=O)cc1 | 20.2% (inactive) |
| Cc1ccc(/C=C2\SC(=S)N(CCCC(=O)NNC(=O)c3ccccc3O)C2=O)cc1 | -5.43% (inactive) |
| COC(=O)c1cccc(NC(=O)NC(=O)c2ccccc2Cl)c1 | 7.25% (inactive) |
| COc1cc(/C=N/NS(=O)(=O)c2ccc3ccccc3c2)ccc1OCc1ccc(C(=O)O)cc1 | 12.1% (inactive) |
| Cc1ccc(C(C(=O)NCc2ccco2)N(C(=O)CNC(=O)c2cccs2)c2c(C)cc(C)cc2C)cc1 (configuration not stated) | -13.1% (inactive) |
| COc1ccc(C(=O)OCC(=O)Nc2ccc(Cl)c(C(F)(F)F)c2)c(OC)c1OC | 3.2% (inactive) |
| C=C1C(=O)C=C[C@]2(C)C[C@@H]3OC(=O)[C@](C)(O)[C@H]3C[C@@H]12 | -94.2% (inactive) |
| COc1ccc(Nc2ncnc3ccc(Br)cc23)c(OC)c1 | 6.89% (inactive) |
| CCCn1nnc(NC(=S)NC(=O)C(C)(C)C)n1 | 17.3% (inactive) |
| COc1ccccc1/C=C1\SC(=S)N(CCC(=O)Nc2cc(C)on2)C1=O | 6.74% (inactive) |
| CC(C)CN(C(=O)CN1CCOCC1)c1c(N)n(CC(C)C)c(=O)[nH]c1=O | -2.81% (inactive) |
| O=C(O)c1cccc(N/N=C/c2ccc(OC(F)(F)F)cc2)c1 | 1.52% (inactive) |
| O=C1c2ccc3c4c(ccc(c24)C(=O)N1c1cccc(O)c1)C(=O)N(c1cccc(O)c1)C3=O | -1.18% (inactive) |
| COc1cc(/C=N\Nc2nc(-c3ccc(C)cc3)c(NC(C)=O)s2)ccc1O | 4.59% (inactive) |
| O=C(O)CN1C(=O)/C(=C\c2ccccc2OCc2ccc(Cl)cc2Cl)SC1=S | 10.8% (inactive) |
| COc1ccc(C(=O)Nc2cccc(C(=O)N/N=C/c3ccc(OC)cc3OC)c2)cc1 | 11.2% (inactive) |
| C[C@H](CO)N1C[C@H](C)[C@H](CN(C)CC2CCCCC2)Oc2ccc(NC(=O)Nc3cccc4ccccc34)cc2C1=O | 6.42% (inactive) |
| COC(=O)C[C@@H]1CC[C@H]2[C@H](COc3ccc(NC(=O)Nc4cc(C)cc(C)c4)cc3C(=O)N2C)O1 | 5.7% (inactive) |

| Structure (SMILES) | activity change, negative = cytotoxicity |
| --- | --- |
| COc1ccc2nc(-c3ccc(F)cc3)sc2c1 | -14.1% (inactive) |
| CC1(CCc2ccccc2)NC(=O)N(CC(=O)N2CC(=O)Nc3ccccc32)C1=O (configuration not stated) | 3.37% (inactive) |
| O=C(CCCCl)Nc1nc(-c2ccc3c(c2)OCCO3)cs1 | 3.63% (inactive) |
| Cc1noc(C)c1NC(=O)Nc1ccc2c(c1)CC(=O)N([C@H](C)CO)C[C@@H](C)[C@@H](CN(C)Cc1ccc(Cl)c(Cl)c1)O2 | 0.509% (inactive) |
| CCOc1ccc(C(c2c(NC(=O)c3ccccc3)sc(C)c2C)N2CCN(CCO)CC2)cc1 (configuration not stated) | 16.1% (inactive) |
| Cc1cc2sc3ccc(C#CC4(O)CCCCC4)cc3c(=O)c2cc1C | 23.5% (inactive) |
| CCCCNC1=CC(=O)C(=O)c2ccccc21 | 3.77% (inactive) |
| C[C@@H]1CN([C@H](C)CO)C(=O)c2cc(C#CCc3ccccc3)cnc2O[C@@H]1CN(C)Cc1cccc(F)c1 | -4.64% (inactive) |
| COc1ccc(/C=N/Nc2ccc(C(=O)O)cc2)cc1Br | -12.7% (inactive) |
| COC(=O)C[C@@H]1CC[C@@H]2[C@@H](COc3ccc(NC(=O)Nc4ccc(C#N)cc4)cc3C(=O)N2C)O1 | 15% (inactive) |
| COc1cc(C(c2c(C)[nH][nH]c2=O)c2c(C)[nH][nH]c2=O)ccc1OC(C)C | 3.29% (inactive) |
| COc1ccc(/C=C2\SC(=S)N(CCCC(=O)NNC(=O)c3ccccc3O)C2=O)cc1 | -6.8% (inactive) |
| N#C[C@H]1[C@H](c2ccc(C#Cc3ccccc3F)cc2)[C@@H](CO)N1C(=O)C1CCOCC1 | -12.8% (inactive) |
| Cc1nc2cc(-c3ccc(Cl)cc3)nn2c(C)c1CCC(=O)NC(C)c1ccc2c(c1)OCCO2 (configuration not stated) | 14.2% (inactive) |
| CCOc1ccc(N=C2C(=O)Nc3ccc(C)c(Br)c32)cc1 | 8.53% (inactive) |
| COc1ccc(S(=O)(=O)Nc2ccc3c(c2)C(=O)N([C@H](C)CO)C[C@@H](C)[C@@H](CN(C)CC2CCCCC2)OCCCC[C@H](C)O3)cc1 | -1.56% (inactive) |
| CC1=NC(=O)C(N=Nc2cccc(C(=O)O)c2)N1c1ccccc1 (configuration not stated) | 18.2% (inactive) |
| C[C@@H]1CN([C@H](C)CO)S(=O)(=O)c2ccc(C#Cc3ccncc3)cc2O[C@@H]1CN(C)C(=O)Nc1ccc2c(c1)OCO2 | -0.54% (inactive) |
| COc1ccc(S(=O)(=O)N=Nc2c(O)[nH]c3ccccc23)cc1 | 5.63% (inactive) |
| CN(CCO)c1ccc(/C=N/Nc2nncc3ccccc23)cc1 | 0.119% (inactive) |
| C[C@H]1CN([C@@H](C)CO)C(=O)c2cccc(NC(=O)c3ccc(-c4nccs4)cc3)c2O[C@@H]1CN(C)Cc1ccc(C(=O)Nc2ccccc2N)cc1 | -30.9% (inactive) |
| Cc1c(CC(=O)NCCCC(=O)O)c(=O)oc2cc3c(cc12)CCC(C)(C)O3 | 4.66% (inactive) |
| COC(=O)Cc1ccc(NC(=O)c2ccccc2Cl)cc1 | -1.96% (inactive) |
| Cc1ccc(S(=O)(=O)N(C)C[C@H]2Oc3c(cccc3N(C)C)C(=O)N([C@@H](C)CO)C[C@@H]2C)cc1 | -6.3% (inactive) |
| COc1ccc(OC)c(-c2cc(C(F)(F)F)c3c(n2)sc2c(O)cc(=O)[nH]c23)c1 | -3.31% (inactive) |
| O=C(NC1CCCC1)C(c1ccccc1)n1c(CSCCOc2ccccc2)nc2ccccc21 (configuration not stated) | 3.49% (inactive) |

| Structure (SMILES) | activity change, negative = cytotoxicity |
| --- | --- |
| CCOc1ccccc1CNC(=O)c1ccc(Sc2ccc(Cl)cc2)c(NC(C)=O)c1 | -3.24% (inactive) |
| O=C(NC(=O)c1ccccc1)Nc1ccccc1 | 10.6% (inactive) |
| O=C(O)c1ccc(N/N=C/c2cc(Br)cs2)cc1 | 25.7% (inactive) |
| CC(Oc1cccc(Cl)c1)C(=O)NCCCCc1ccccc1 (configuration not stated) | 13.3% (inactive) |
| COC(=O)C[C@H]1CC[C@H]2[C@@H](COc3ccc(NC(=O)Nc4cccc(Cl)c4)cc3C(=O)N2C)O1 | -10.7% (inactive) |
| OCCN1CCN(C(=S)c2ccc(-c3ccccc3)cc2)CC1 | -0.296% (inactive) |
| COc1ccc(CCC(C)NCC2CCCCC2)cc1 (configuration not stated) | 7.46% (inactive) |
| COC(=O)C[C@H]1C=C[C@@H](NC(=O)Nc2ccc(C(F)(F)F)cc2)[C@H](CO)O1 | 9.61% (inactive) |
| Cc1csc(NC(=O)CCc2c(C)nc3cc(-c4ccc(Cl)cc4)nn3c2C)n1 | 10.8% (inactive) |
| C[C@@H]1CN([C@@H](C)CO)S(=O)(=O)c2ccc(C#Cc3ccncc3)cc2O[C@H]1CN(C)C(=O)C1CCOCC1 | -5.87% (inactive) |
| O=C(O)c1cccc(N/N=C/c2cccs2)c1 | 8.12% (inactive) |
| C(=C\c1ccc(C2[C@H]3CNC[C@@H]2N3Cc2ccccn2)cc1)/c1ccccc1 (some centres not stated) | -7.86% (inactive) |
| C[C@@H]1CN([C@H](C)CO)C(=O)CCCn2nncc2CO[C@H]1CN(C)Cc1ccc(Oc2ccccc2)cc1 | -9.65% (inactive) |
| O=C(CCCN1C(=O)/C(=C/c2ccccc2Cl)SC1=S)NNC(=O)c1ccc(Cl)cc1Cl | -1.95% (inactive) |
| c1ccc(-c2ccc([C@H]3[C@H]4CNC[C@@H]3N4Cc3cc(-c4ccccc4)on3)cc2)cc1 | -7.89% (inactive) |
| C/C(=N\Nc1cccc2cccnc12)c1ccccn1 | 3.52% (inactive) |
| CCCCN=C(NNc1ccc(Br)cc1)C(=O)OCC | 4.46% (inactive) |
| N/C(Cc1nc(-c2ccc(F)cc2)cs1)=N\O | 11.6% (inactive) |
| COC(=O)C[C@@H]1CC[C@@H]2[C@H](COc3ccc(NC(=O)c4cc(F)cc(F)c4)cc3C(=O)N2C)O1 | -5.96% (inactive) |
| CCCCCCN(C(=O)CCCCCN1C(=O)NC(c2ccc(Cl)cc2)C(C(=O)OCc2ccccc2)=C1C)C(C(=O)NCCCC)c1ccc(OCC(=O)OC)c(C(=O)OC)c1 (configuration not stated) | 8.62% (inactive) |
| CC1=NN(c2ccccc2)C(=O)/C1=C\C=C\c1ccccc1 | 22.9% (inactive) |
| COc1ccc2oc(C(=O)NCCc3ccccc3)c(C)c2c1 | 3.92% (inactive) |
| COc1ccc(/C=C2\Oc3ccccc3C2=O)cc1 | -14.5% (inactive) |
| CC(C)(C)C(=O)Nc1ccc(N=Nc2ccccc2)cc1 | -0.79% (inactive) |
